Like-named read-outs stand apart in the source and are kept apart here.

A word on the viability: it is a per cent measure of how many cells are alive, often set against a control. As usually defined, the inhibition is the drop in the measured response relative to a control, in per cent.

Data set [1] deals with human tumor cell line HL-60. Put plainly: HL-60 cell proliferation (in vitro HL-60 cell inhibition assay, SRB). The class given is cell-based. The note with it: particularly against leukemia. Here is the method: (§1) Use of the HL-60 cell line in evaluating the anti-tumor activity of retinoids is reported in the literature, for example, see Janick-Buckner, D. et al.,FASEB J. 5:320-325; 1991
(§2) 1. Human tumor cell line HL-60 (ATCC CCL 240), obtainable from the American Type Culture Collection (ATCC), a promyelocytic leukemia cell line.
(§3) 2. Culture media: Roswell Park Memorial Institute-1640 (RPMI-1640) plus 10% Fetal Bovine Serum (FBS).
(§4) 3. Standard protocol for culturing cell lines: in T-75 or T-150 flasks; 37° C.; 95% air, 5% CO2; 100% humidity.
(§5) a. The HL 60 cell line is passaged by removing approximately 75% of the media and cell mixture and adding an equal amount of fresh media once or twice a week.
b. […]
j. Read absorbance at 562 nm using a standard 96-well microtiter plate reader. Absorbance readings are linear with dye concentrations below 1.8 absorbance units. To reduce absorbance, decrease wavelength at which measurements are taken;
single point reading; the higher the absorbance, the higher the cell number; […]
initial control cell number (ICCN)-no test compound present in culture medium, end point determined at the time of treatment;
final control cell number (FCCN)-no test compound present in culture medium, end point determined at 72 hours after treatment;
final cell number (FCN)-test compound present in culture medium, end point determined at 72 hours after treatment; […]

Data set [2] deals with human tumor cell line HL-60. The experiment in a line: HL-60 cell viability (trypan blue exclusion). The class given is cell-based. The note with it: for cell viability (in words): HL-60, compared to retinoic acid; for viability at 10 µM / viability at 30 µM / viability at 100 µM: Homo sapiens. Here is the method: as §1, §2, §3, §4, §5
b. All procedures are performed aseptically in a Class II biological safety cabinet using standard BL-2 containment procedures. At approximately monthly intervals, fresh cells are thawed from liquid nitrogen storage in order to prevent genetic drift in stock cell lines.
a. after cell passage, count cells with a hemacytometer;
b. adjust concentration to approximately 20,000 cells per 100 μL;
C. pipette 100 μL cell suspension per well of a standard 96-well microtiter plate;
d. add test compound dissolved in phosphate buffered saline (PBS), or in DMSO for the comparative compound, retinoic acid, for final concentration levels ranging from 0 to 100 μM;
e. adjust volume to 200 μL/well by adding RPMI-1640;; and
f. incubate 72 hours under standard culture conditions and determine end points.
6. End Point 2: Cell Viability:
a. Add 100 μL/well of 0.5% (w/v) trypan blue in PBS.
b. Using a hemacytometer, determine the percent viable cells by calculating the ratio of cells that exclude trypan blue to the total number of cells.

The subject of data set [3] is PAM-212 murine keratinocyte cell line. The experiment in a line: Anti-psoriatic activity by inhibition of keratinocyte proliferation (PAM-212, SRB). In kind it is cell-based, murine (BALB/c mice). Conditions: for minimal effective concentration: Mus musculus, PAM212, PAM-212, 72 hours, FIG. 2, read-out: concentration at which marked inhibition of cell growth is seen; for inhibition of keratinocyte proliferation (in words): in vitro. Here is the method:
Assay for Anti-psoriatic Activity by Inhibition of Keratinocyte Proliferation:
1. Cell line: PAM-212 murine keratinocyte cell line isolated and cultivated from newborn BALB/c mice (see S. H. Yuspa et al., Cancer Research, 40, 4694-4703, December, 1980) that appears to retain many characteristics of normal keratinocytes.
2. Culture medium: 1:1 DMEM and Ham's F-12 with 10% FBS.
3. Standard protocol for culturing cell lines; in T-75 or T-150 flasks; 37° C.; 95% air, 5% CO2; 100% humidity. Cell line PAM-212 is passaged when approximately 80% confluent; with trypsin (1 mg/mL) and EDTA (1 mM EDTA in Ca-Mg free Hank's balanced salt solution); at a 1:4 to 1:5 split.
a. All procedures are performed aseptically in a Class II biological safety cabinet using standard BL-2 containment procedures. At approximately monthly intervals, fresh cells are thawed from liquid nitrogen storage in order to prevent genetic drift in stock cell lines.
After cell passage, count cells with a hemacytometer;
a. Adjust concentration to approximately 1,000 cells per 100 μL;
b. Pipette 100 μL cell suspension per well of a standard 96-well microtiter plate;
c. Preincubate 24 hours to allow cells to attach;
d. Add test compound dispersed in phosphate buffered saline (PBS), or in DMSO for the comparative compound, retinoic acid, to achieve final concentration levels ranging from 0 to 100 μM;
e. Adjust volume to 200 μL/well by adding DMEM/F12; and
f. Incubate 72 hours under standard culture conditions and determine end points.
Remove media and add 100 μL/well of cold (4° C.) 10% (w/v) trichloroacetic acid (TCA) in water;
a. After 1 hour at 4° C., remove TCA and rinse cells 5 times with tap water;
c. Add 50 μL/well of 0.4% (w/v) sulforhodamine B (SRB) in 1% (v/v) acetic acid in water;
d. After 30 minutes at room temperature, rinse cells 4 times with 1% (v/v) acetic acid in water to remove residual stain;
f. Dissolve stain by adding 100 μL/well of unbuffered Tris base, pH 10.5;
g. Read absorbance at 562 nm using a standard 96-well microtiter plate reader. Absorbance readings are linear with dye concentrations below 1.8 absorbance units. To reduce absorbance, decrease wavelength at which measurements are taken.
single point reading; the higher the absorbance, the higher the cell number;
a. background-no cell and no test compound present in culture medium;
b. control-no test compound present in culture medium;
c. initial control cell number (ICCN)-no test compound present in culture medium, end point determined at the time of treatment;
d. final control cell number (FCCN)-no test compound present in culture medium, end point determined at 72 hours after treatment;
e. final cell number (FCN)-test compound present in culture medium, end point determined at 72 hours after treatment;
ICCN=A(control, zero hour)-A(background) […]

In data set [4] the test system is RAW 264.7 murine monocyte/macrophage line. Put plainly: Anti-inflammatory activity by inhibition of macrophage chemiluminescence (respiratory burst, PMA-stimulated, luminol). In kind it is cell-based. The note with it: for minimal effective concentration: PMA-stimulated RAW 264.7, read-out: concentration at which marked inhibition of luminescence is seen. From the text: Assay for Anti-inflammatory Activity by Inhibition of Macrophage Chemiluminescence
The RAW 264.7 cell line (available from the ATCC under accession no. TIB 71) is a murine monocyte/macrophage line the cells of which show many of the differentiative functions of a macrophage. Like macrophages, the cells are capable of phagocytosis and undergo an oxidative burst (increased oxygen consumption) and production of oxygen radicals (e.g., superoxide) in response to appropriate signals. Agents that inhibit the activation of these cells in vitro, so as to inhibit the respiratory burst and corresponding production of oxygen radicals associated with the activation, are therefore inhibitors of macrophage activation and critical steps in inflammatory processes. These agents are likely, then to be anti-inflammatories.
The respiratory burst and corresponding production of oxygen radicals that accompany macrophage activation can be measured in a variety of ways, including chemiluminescence based on the reaction of the oxygen radicals with luminol added to the culture medium (see M. A. Trush et al, 1978, "The Generation of Chemiluminescence by Phagocytic Cells." Methods in Enzymology 57: 462-494). Indeed, chemiluminescence generated from luminol in the culture medium of macrophage cell lines is recognized in the art as a marker of macrophage activation.
Cell line: RAW 264.7 (ATCC TIB 71);
1. Culture medium: DMEM with 5% FBS (attachment dependent);
2. Standard protocol for culturing cell lines: in T-75 or T-150 flasks; 37° C.; 95% air, 5% CO2; 100% humidity;
3. Cell lines are passaged when approximately 80% confluent; with trypsin (1 mg/mL) and EDTA ([…] in Ca-Mg free Hank's balanced salt solution); at a 1:4 to 1:5 split;
4. Trypsinize the cells and count with a hemacytometer;
5. Adjust concentration of cells to approximately 1,000,000 cells per mL;
6. Suspend cells in DMEM lacking phenol red and without FBS;
7. Pipette 1 mL into a standard luminometer cuvet (12×75), commercially obtainable from Analytical Luminescence Laboratories, San Diego;
8. Add luminol to final concentration of 1 μM;
9. Add test compound (0, 1, 3, 10, 30 μM);
10. Add 100 nanograms of phorbol myristate acetate (PMA);
11. Wait 1 minute and read photo counts (i.e., luminescence) on a Monolight 2010 luminometer available from Analytical Luminescence Laboratories;
The results are represented in Table 2, which illustrates the marked inhibition of luminescence by the compounds tested (CPR 2003 and CPR 2004) at concentrations above 3 μM. Results are calculated as percent of control (no test compound present).

Data set [5] is described as follows: Liposome formation in PBS. In kind it is physicochemical. The note with it: sonication. From the text: Solutions of the subject compounds of Formula (I) in PBS (phisphate-buffered saline) have characteristics indicative of the presence of liposomes. These preparations require sonication in order to form uniform, cloudy suspensions. The requirement for sonication and the cloudy appearance of the suspensions are some known properties of liposomal preparations. Additionally, foam generation, which is associated with micellar suspensions, is not a property of these preparations.

The conditions of data set [6]: R. Andreesen, Prog. Biochem. Pharmacol., 22, 118-131; cited from earlier work.
[7] abbreviates: RAW264.7, PMA-stimulated mouse macrophages, 1 μM, read-out: % Inhibition of respiratory burst.
The mark [8] stands for this setting: RAW264.7, PMA-stimulated mouse macrophages, 3 μM, read-out: % Inhibition of respiratory burst.
The mark [9] stands for this setting: RAW264.7, PMA-stimulated mouse macrophages, 10 μM, read-out: % Inhibition of respiratory burst.
The mark [10] stands for this setting: RAW264.7, PMA-stimulated mouse macrophages, 30 μM, read-out: % Inhibition of respiratory burst.
Where [11] appears, read: Mus musculus, RAW264.7, read-out: % Inhibition of respiratory burst.

Consider `CCCCCCCCCCCCCCCCCCOCC(COC(=O)/C=C(C)/C=C/C=C(C)/C=C/C1=C(C)CCCC1(C)C)OP(=O)([O-])OCC[N+](C)(C)C` (stereo not drawn) [CPR 2004, 1-O-n-Octadecyl-3-(all-trans-retinoyl)-glycero-2-phosphocholine], for which the “anti-tumor or anti-cancer activity (in words)” value in data set [1] is “marked anti-tumor or anti-cancer activity”. The “cell viability (in words)” value in data set [2] is “relatively high cell viability”. In data set [2] (HL-60, 72 h), this compound showed a viability at 10 µM of 92%, a viability at 30 µM of 94% and a viability at 100 µM of 59%. In data set [3], the minimal effective concentration was > 10 µM and the “inhibition of keratinocyte proliferation (in words)” value is listed as “markedly inhibit proliferation of these cells in vitro”. Besides, the “reduction of macrophage activation (in words)” value in data set [4] was “markedly reduce macrophage activation”. In addition, the minimal effective concentration in data set [4] (Mus musculus, RAW264.7) was > 3 µM. In addition, the inhibition at 1 µM in data set [4] (setting [7]) stood at 14%. Also, the inhibition at 3 µM in data set [4] (setting [8]) is 55%. In addition, in data set [4] (setting [9]), the inhibition at 10 µM was determined as 93%. Moreover, the inhibition at 30 µM in data set [4] (setting [10]) was 99%.
For the compound `CC1=C(/C=C/C(C)=C/C=C/C(C)=C/C(=O)O)C(C)(C)CCC1` [Retinoic Acid, retinoic acid, reference compound], the viability at 10 µM in data set [2] (HL-60, 10 μM, 72 hours, read-out: % Viability) came to 87%. Besides, the viability at 30 µM in data set [2] (HL-60, 30 μM, 72 hours, read-out: % Viability) was 70%. Further, the viability at 100 µM in data set [2] (HL-60, 100 μM, 72 hours, read-out: % Viability) was 0%. In data set [4] (setting [11]), the inhibition at 1 µM was 2%, the inhibition at 3 µM was determined as 6%, the inhibition at 10 µM stood at 3% and the inhibition at 30 µM is 6%. Further, in data set [5], the “liposome formation (in words)” value was “unlike retinoic acid, the subject compounds are capable of forming liposomes”.
In the case of `CCCCCCCCCCCCCCCCCCOCC(COP(=O)([O-])OCC[N+](C)(C)C)OC(=O)/C=C(C)/C=C/C=C(C)/C=C/C1=C(C)CCCC1(C)C` (stereo not drawn) [CPR 2003, 1-O-n-Octadecyl-2-(all-trans-retinoyl)-glycero-3-phosphocholine], the “anti-tumor or anti-cancer activity (in words)” value in data set [1] is on record as “marked anti-tumor or anti-cancer activity”. For the same compound, the “cell viability (in words)” value in data set [2] is given as “relatively high cell viability”. Also, in data set [2] (HL-60, 72 h), the viability at 10 µM is 97%, the viability at 30 µM was 93% and the viability at 100 µM is 97%. Besides, in data set [3], the minimal effective concentration was > 1 µM and the “inhibition of keratinocyte proliferation (in words)” value is listed as “markedly inhibit proliferation of these cells in vitro”. Further, the “reduction of macrophage activation (in words)” value in data set [4] is “markedly reduce macrophage activation”. In data set [4] (Mus musculus, RAW264.7), the minimal effective concentration was > 3 µM. The inhibition at 1 µM in data set [4] (setting [7]) worked out at 19%. Besides, in data set [4] (setting [8]), the inhibition at 3 µM came to 40%. Moreover, the inhibition at 10 µM in data set [4] (setting [9]) was 81%. Also, the inhibition at 30 µM in data set [4] (setting [10]) amounted to 99%.
In the case of `CCCCCCCCCCCCCCCCCCOC[C@H](COP(=O)([O-])OCC[N+](C)(C)C)OC` [ET 18-OCH3, 1-O-octadecyl-2-O-methyl-sn-glycero-3-phosphocholine], in data set [6], the “anti-tumor activity (in words)” value is on record as “markedly potent anti-tumor activity”.

Values taken from patent publication US5827836A, “Retinoid glycerol phospholipid conjugates” (Clarion Pharmaceuticals Inc., priority 1996, dated 1998).
